Assay results taken from patent US11629171B2, “Beta-hairpin peptidomimetics” (POLYPHOR AG, priority 2017, dated 2023).
Values after ≈ are worked out from the molar mass of the structure shown. Where a SMILES comes first, the peptide text is derived from it. Bridges are numbered along the chain shown (N, C = ends). Roman numbers before positions name the chains, in order. [ ]: non-standard residue; d: D form. The star is where a group is joined. Thr(ol) = C[C@@H](O)[C@H](N)CO; pGlu = O=C1CC[C@@H](C(=O)O)N1; Tle = CC(C)(C)[C@H](N)C(=O)O; Hiv = CC(C)[C@H](O)C(=O)O; dDab = NCC[C@@H](N)C(=O)O; hSer = N[C@@H](CCO)C(=O)O; NHCH(CH2OH)2 = OCC(CO)N*; Orn = NCCC[C@H](N)C(=O)O; Dab = NCC[C@H](N)C(=O)O; Dap = NC[C@H](N)C(=O)O

How the values were obtained:
Type in all cases: cell-based
[1] = system: Escherichia coli ATCC 25922; details: ATCC 25922
Procedure: (§1) The in vitro antimicrobial activities of the peptides were determined in 96-well plates (Greiner, polystyrene) by the standard CLSI broth microdilution method (Clinical and Laboratory Standards Institute 2014. Performance standards for antimicrobial susceptibility testing, 24th informational supplement. Approved standard CLSI M100-S24; Clinical and Laboratory Standards Institute, Wayne, Pa.). The following microorganisms were used to determine antibiotic activity of the peptides: Escherichia coli ATCC 25922, Klebsiella pneumoniae SSI #3010^a), Acinetobacter baumannii DSM 30008, Pseudomonas aeruginosa ATCC 27853 and the clinical isolates Escherichia coli 926415^b), Klebsiella pneumoniae 968733^b), Acinetobacter baumannii 872842^b), Enterobacter cloacae 848840^b) and Escherichia coli MCR-1 Af45^c). Before preparation of inocula, Escherichia coli MCR-1 Af45 was subcultured on Mueller-Hinton II (MH-cation adjusted) agar containing 2 μg/mL colistin. ^a) Obtained from Statens Serum Institut (SSI), Copenhagen, Denmark^b) Obtained from International Health Management Associates, Inc. (IHMA Europe Sàrl), Epalinges, Switzerland^c) Obtained from Prof. Patrice Nordmann, University of Fribourg, Fribourg, Switzerland
(§2) Inocula of the microorganisms were diluted into Mueller-Hinton II (MH-cation adjusted) broth and compared with a 0.5 McFarland standard to give appr. 10^6 colony forming units (CFU)/mL. Aliquots (90 μL) of inoculum were added to 10 μL of MH-II broth+P-80 (Polysorbate 80, 0.002% final concentration, v/v) containing the peptide in serial two-fold dilutions. Antimicrobial activities of the peptides were expressed as the minimal inhibitory concentration (MIC) in μg/mL at which no visible growth was observed after 18-20 hours of incubation at 35° C.

[2] = system: Klebsiella pneumoniae 968733; details: 968733
Procedure: as §1, §2

[3] = system: Acinetobacter baumannii 872842; details: 872842
Procedure: as §1, §2

[4] = system: Pseudomonas aeruginosa ATCC 27853; details: ATCC 27853
Procedure: as §1, §2

[5] = system: Acinetobacter baumannii DSM 30008; details: DSM 30008
Procedure: as §1, §2

[6] = system: Klebsiella pneumoniae SSI #3010; details: SSI #3010
Procedure: as §1, §2

Escherichia coli 926415 = details: 926415
Procedure: as §1, §2

[7] = system: Enterobacter cloacae 848840; details: 848840
Procedure: as §1, §2

[8] = system: human red blood cells (hRBC); assay: Hemolysis; details: red cells of human, 1 h, 200
In short: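 Percent hemolysis relative to 2% Triton X-100 (100%) and PBS/10% water (0%), from blank-corrected OD540 of diluted supernatants. Peptides tested at 200 μg/mL against 20% (v/v) washed human erythrocytes, 1 h, 37° C, shaking at 300 rpm.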

| MIC [1] | MIC [2] | MIC [3] | MIC [4] | MIC [5] | MIC [6] | MIC (Escherichia coli 926415) | MIC [7] | SMILES | Hemolysis at 200 μg/mL [8] |
| --- | --- | --- | --- | --- | --- | --- | --- | --- | --- |
| 0.0625 µg/mL (≈ 0.0267 µM) | 0.5 µg/mL (≈ 0.213 µM) | 0.25 µg/mL (≈ 0.107 µM) | 0.125 µg/mL (≈ 0.0533 µM) | 0.0625 µg/mL (≈ 0.0267 µM) | 0.125 µg/mL (≈ 0.0533 µM) | 0.5 µg/mL (≈ 0.213 µM) | 0.25 µg/mL (≈ 0.107 µM) | CC(C)C[C@@H]1NC(=O)[C@@H](CC(C)C)NC(=O)[C@H](CCN)NC(=O)[C@@H](NC(=O)[C@H](CN)NC(=O)[C@@H](NC(=O)[C@H](CCN)NC(=O)CC[C@@H]2NC(=O)[C@@H](NC(=O)[C@H](Cc3ccc(O)cc3)NC(=O)[C@@H](NC(=O)[C@@H](O)C(C)C)[C@@H](C)O)CSSC[C@@H](C(=O)N[C@H](C(=O)N[C@@H](C)C(=O)NC(CO)CO)C(C)(C)C)NC(=O)[C@H](Cc3c[nH]c4ccccc34)NC(=O)[C@H](CO)NC(=O)[C@@H](CCN)NC2=O)[C@@H](C)O)CCNC(=O)[C@H]([C@@H](C)O)NC(=O)[C@H](CCN)NC(=O)[C@H](CCN)NC1=O [Ex. 197] (I: H-[Hiv]TYCE[dDab]SWC[Tle]A-{NHCH(CH2OH)2} / II: [Dab]T[Dap][Dab][Dab][dL]L[Dab][Dab]T; disulfide I:4-I:9; amide I:5-II:N; lactam II:4-II:C) | <1% |
| 0.125 µg/mL (≈ 0.0518 µM) | 0.25 µg/mL (≈ 0.104 µM) | 0.25 µg/mL (≈ 0.104 µM) | 0.125 µg/mL (≈ 0.0518 µM) | 0.125 µg/mL (≈ 0.0518 µM) | 0.125 µg/mL (≈ 0.0518 µM) | 0.25 µg/mL (≈ 0.104 µM) | 0.25 µg/mL (≈ 0.104 µM) | CC(C)C[C@@H]1NC(=O)[C@@H](CC(C)C)NC(=O)[C@H](CCN)NC(=O)[C@@H](NC(=O)[C@H](CCN)NC(=O)[C@@H](NC(=O)[C@H](CCN)NC(=O)CC[C@@H]2NC(=O)[C@H](CCN)NC(=O)[C@H](Cc3ccc(O)cc3)NC(=O)[C@@H](NC(=O)[C@@H]3CCC(=O)N3)CSSC[C@@H](C(=O)N[C@H](CO)[C@@H](C)O)NC(=O)[C@H](C(C)(C)C)NC(=O)[C@H](CO)NC(=O)[C@H](Cc3c[nH]c4ccccc34)NC(=O)[C@H](CCO)NC(=O)[C@@H](CCN)NC2=O)[C@@H](C)O)CCNC(=O)[C@H]([C@@H](C)O)NC(=O)[C@H](CCN)NC(=O)[C@H](CCN)NC1=O [Ex. 77] (I: [pGlu]CY[Dab]E[dDab][hSer]WS[Tle]C[Thr(ol)] / II: [Dab]T[Dab][Dab][Dab][dL]L[Dab][Dab]T; disulfide I:2-I:11; amide I:5-II:N; lactam II:4-II:C) | <1% |
| 0.125 µg/mL (≈ 0.0518 µM) | 0.5 µg/mL (≈ 0.207 µM) | 0.5 µg/mL (≈ 0.207 µM) | 0.25 µg/mL (≈ 0.104 µM) | 0.125 µg/mL (≈ 0.0518 µM) | 0.25 µg/mL (≈ 0.104 µM) | 0.5 µg/mL (≈ 0.207 µM) | 2 µg/mL (≈ 0.829 µM) | CC(C)C[C@@H]1NC(=O)[C@@H](CC(C)C)NC(=O)[C@H](CCN)NC(=O)[C@@H](NC(=O)[C@H](CN)NC(=O)[C@@H](NC(=O)[C@H](CCN)NC(=O)CC[C@@H]2NC(=O)[C@H](CCCN)NC(=O)[C@H](CCN)NC(=O)[C@H](Cc3ccc(O)cc3)NC(=O)[C@@H](NC(=O)[C@@H](O)C(C)C)CSSC[C@@H](C(=O)N[C@H](C(N)=O)[C@@H](C)O)NC(=O)[C@H](C(C)(C)C)NC(=O)[C@H](CO)NC(=O)[C@H](Cc3c[nH]c4ccccc34)NC(=O)[C@H]([C@@H](C)O)NC2=O)[C@@H](C)O)CCNC(=O)[C@H]([C@@H](C)O)NC(=O)[C@H](CCN)NC(=O)[C@H](CCN)NC1=O [Ex. 160] (I: H-[Hiv]CY[Dab][Orn]ETWS[Tle]CT-NH2 / II: [Dab]T[Dap][Dab][Dab][dL]L[Dab][Dab]T; disulfide I:2-I:11; amide I:6-II:N; lactam II:4-II:C) | <1% |
